Measured values as given in patent US11866708B2, “Tailored modulation of gene regulation programs via functional enhancer RNA” (Board of Regents, The University of Texas System, priority 2019, dated 2024).

Tested on: TNFSF10
Experiment: TNFSF10 and eRNA expression with TIC10 treatment
Assay type: cell-based, human
Settings: TIC10 treatment 48 hours; FIG. 6F left
Procedure: For the negative control experiment, 5 uM of TIC10 (SML1068, Sigma-Aldrich) was treated for 48 hrs to activate the apoptosis pathway by inducing the level of TNFSF10 expression.

## Cc1ccccc1CN1C(=O)C2=C(CCN(Cc3ccccc3)C2)N2CCN=C12 [TIC10]
  TNFSF10 expression: induced TNFSF10 expression significantly
  expression of the virus inducible eRNAs associated with the TNFSF10 gene: did not affect expression
